Assay results reported in publication PMC12295927, “Design, Synthesis, and Testing of 1,2,3-Triazolo-Quinobenzothiazine Hybrids for Cytotoxic and Immunomodulatory Activity” (International Journal of Molecular Sciences, 2025).

Experiments:
[1] = system: MGC-803 gastric cancer cells; set-up: method as in PMID 30345465; conditions: cited from earlier work
[2] = system: xenografted MGC-803 tumor; set-up: method as in PMID 30345465; conditions: oral study; cited from earlier work
[3] = system: BEAS-2B; test: Alamar Blue cytotoxicity test, BEAS-2B; assay type: cell-based, Human; conditions: Homo sapiens, 24 h, 24 h incubation, read-out: IC50 values for BEAS-2B line
Description: The cytotoxicity of the tested chemical compounds MJ1–MJ20 was tested using the Alamar Blue test. The experiment was conducted on cell lines BEAS-2B (Figure 7), HCT116 (Figure 8), U2OS (Figure 9), MCF7 (Figure 10), SH-SY5Y (Figure 11), NHDF (Figure 12), and A549 (Figure 13). Cells were seeded in 96-well plates and incubated with the tested compounds for 24 h. The test result is the IC50 parameter, which is a measure of cytotoxic activity expressed by the concentration of the substance that causes the death of half of the analyzed cells compared to the control.
In cytotoxicity studies, the Alamar Blue test was used, which is based on the ability of living cells to reduce the non-fluorescent dye resazurin to fluorescent resorufin, which reflects the metabolic activity of cells. BEAS-2B, NHDF, HCT116, MCF7, A549, SH-SY5Y and U2OS cell lines were cultured under standard conditions, in DMEM medium supplemented with 10% FBS and 1% penicillin/streptomycin, at 37 °C, 5% CO2 and 95% humidity. Cells were seeded in 96-well plates at 1 × 10^4 cells per well and incubated for 24 h. Then, the tested compounds (MJ1–MJ20) were added at different concentrations (from 6.25 µM to 100 µM). The control contained cells untreated with the tested compounds. After 24 h of incubation, 10 µL of Alamar Blue solution was added to each well and incubated for another 2–4 h under the same conditions. The signal was measured spectrophotometrically at wavelengths of 570 nm (for resorufin) and 600 nm (for resazurin) or optionally fluorimetrically, using an excitation maximum of 570 nm and an emission maximum of 585 nm. The results were presented as percentage of cell survival relative to the control, calculating the ratio of absorbance or fluorescence of the sample to the control value. The Alamar Blue assay, due to its sensitivity and non-toxicity, allows for an accurate assessment of metabolic activity and cell survival in response to the tested quinobenzothiazines.

[4] = system: BCL2 gene; test: RT-qPCR BCL2 gene expression in BEAS-2B; assay type: cell-based, Human; conditions: 24 h; for fold induction at 100 µM: Homo sapiens, reference gene RPL41, vs untreated control, read-out: Relative level of expression, BCL2 gene
Description: (§1) Real-time polymerase chain reaction was performed for the reference gene RPL41 (ribosomal protein L41) and the tested genes: BCL2, AIFM2, MDM2, IL6 and IL8. […] The BEAS-2B line was selected for the experiment. The expression level of selected genes was measured after 24 h of incubation with the tested substances MJ1–MJ20 at a concentration of 100 μM (Table 3).
The RT-qPCR experiment was performed for the BEAS-2B cell line. In this experiment, the BCL2 gene was studied, and RPL41 was used as the reference gene (Figure 14).
(§2) Gene expression studies used quantitative RT-qPCR to assess the effect of the tested quinobenzothiazines (MJ1–MJ20) on the expression of apoptosis-related genes (BCL2, AIFM2, MDM2) and pro-inflammatory cytokines (IL6, IL8) (Table 4).
(§3) BEAS-2B and HCT116 cells were seeded in 6-well plates at 2 × 10^5 cells per well and cultured in RPMI-1640 (BEAS-2B) or DMEM (HCT116) medium supplemented with 10% FBS and 1% penicillin/streptomycin at 37 °C, 5% CO2 and 95% humidity. After 24 h of incubation, the tested compounds were added at a concentration of 100 µM. After 24 h, the medium was removed from the cells, washed with PBS solution, 0.5 mL of trypsin was added per well and after 5 min it was neutralized with medium. The obtained cell suspension was centrifuged for 3 min at 2000 rpm, the supernatant was removed, and the obtained pellet was suspended in 400 µL of phenozol. Samples were frozen at −20 °C and stored until further experiment and RNA isolation.
(§4) Total RNA was isolated from cells using the A&A Biotechnology Total RNA Mini kit according to the manufacturer’s protocol. RNA quality and quantity were assessed using a NanoDrop 2000 spectrophotometer at 260/280 nm. Reverse transcription was performed using the protocol (EURx NG dART RT Kit) to obtain cDNA. After incubation, samples were placed in a freezer (−20 °C) and stored until further analysis.
(§5) The experiment was performed according to the protocol (Brilliant III Ultra Fast SYBR® Green QPCR Master Mix, Quick Reference Guide for the Bio-Rad CFX96 Real-Time PCR Detection System). RT-qPCR reaction was performed using specific primers for target genes (BCL2, AIFM2, MDM2, IL6, IL8). Gene expression was normalized to the expression of the reference gene RPL41. Reaction profiles and results were performed using Bio-Rad CFX Maestro 1.1 software from Bio-Rad. Analysis and calculations of the results obtained during RT-qPCR were performed using Microsoft Excel.
(§6) The results were analyzed using the R = 2^−ΔΔCt method, which allows for determining the relative level of gene expression (R) compared to the control. Each experiment was performed in three technical and biological replicates. RT-qPCR allowed for precise assessment of changes in the expression of genes related to the processes of apoptosis and inflammatory response under the influence of quinobenzothiazines, which allowed for identifying their potential mechanisms of action at the molecular level.

[5] = system: MDM2 gene; test: RT-qPCR MDM2 gene expression in BEAS-2B; assay type: cell-based, Human; conditions: Homo sapiens, 24 h, reference gene RPL41, vs untreated control, read-out: Relative level of expression, MDM2 gene
Description: as §1
The RT-qPCR experiment was performed for the BEAS-2B cell line. In this experiment, the MDM2 gene was studied and RPL41 was used as reference gene (Figure 15).
as §2, §3, §4, §5, §6

[6] = system: AIFM2 gene; test: RT-qPCR AIFM2 gene expression in BEAS-2B; assay type: cell-based, Human; conditions: Homo sapiens, 24 h, reference gene RPL41, vs untreated control, read-out: Relative level of expression, AIFM2 gene
Description: as §1
The RT-qPCR experiment was performed for the BEAS-2B cell line. In this experiment, the AIFM2 gene was studied and RPL41 was used as reference gene (Figure 16).
as §2, §3, §4, §5, §6

[7] = system: IL6 gene; test: RT-qPCR IL6 gene expression in BEAS-2B; assay type: cell-based, Human; conditions: 24 h; for fold induction at 100 µM: Homo sapiens, reference gene RPL41, vs untreated control, read-out: Relative level of expression, IL6 gene
Description: as §1
(§7) The RT-qPCR experiment was performed for the BEAS-2B cell line. In this experiment, the IL6 and IL8 genes were studied and RPL41 was used as a reference gene (Figure 17 and Figure 18).
as §2, §3, §4, §5, §6

[8] = system: IL8 gene; test: RT-qPCR IL8 gene expression in BEAS-2B; assay type: cell-based; conditions: Homo sapiens, 24 h, reference gene RPL41, vs untreated control, read-out: Relative level of expression, IL8 gene
Description: as §1, §7, §2, §3, §4, §5, §6

| Compound | IC50 [1] [µM] | Growth of xenografted MGC-803 tumor in vivo [2] | IC50 [3] [µM] | fold induction at 100 µM [4] | fold induction at 100 µM [5] | fold induction at 100 µM [6] | fold induction at 100 µM [7] | fold induction at 100 µM [8] | BCL2 expression increase ([4]; 100 μM, compared to control) [fold] | IL6 expression increase ([7]; 100 μM, compared to control) [fold] |
| --- | --- | --- | --- | --- | --- | --- | --- | --- | --- | --- |
| COc1ccc(-n2cc(CN3c4ccccc4Sc4ccccc43)nn2)cc1 [compound A] | 1.2 | effectively inhibit the growth | – | – | – | – | – | – | – | – |
| CSc1ccc2c(c1)Sc1cc3ccccc3nc1N2Cc1cn(Cc2ccccc2)nn1 [MJ16, 9-Methylthio-6-[(1-benzyl-1H-1,2,3-triazol-4-yl)-methyl]-quino[3,2-b]benzo[1,4]thiazine] | – | – | 84.7 | 41.3 | 6.1 | 1.3 | 11.4 | 5.1 | – | – |
| CSc1ccc2c(c1)Sc1cc3ccccc3nc1N2Cc1cn(CSc2ccccc2)nn1 [MJ20, 9-Methylthio-6-((1-((phenylthio)methyl)-1H-1,2,3-triazol-4-yl)methyl)-quino[3,2-b]benzo[1,4]thiazine] | – | – | 83.7 | 69.4 | 7.7 | 2.8 | 83.4 | 6.6 | 69.4 | 83.4 |
